Assays:
Test in all cases: cells
Design in all cases: species or system panel of 482 human cancer cell lines; ATPLite luminescence growth inhibition after treatment, nine-point dilution curve, 482 cancer cell lines, 384-well
Conditions in all cases: 72 h, recommended growth medium
[1] = system: U2932_HAEMATOPOIETIC_AND_LYMPHOID_TISSUE
Summary of the method: (§1)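 Growth inhibition was measured across a panel of 482 cancer cell lines. Cells were plated at 500 cells per well in recommended growth media in black, tissue culture treated 384-well plates, centrifuged to equilibrate, and incubated 24 h before dosing. Compounds were tested as nine-point dilution curves for 72 h, with viability read by ATPLite luminescence relative to DMSO-treated controls.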

SW1116_LARGE_INTESTINE = system: SW1116_LARGE_INTESTINE
Summary of the method: as §1

TGBC11TKB_STOMACH = system: TGBC11TKB_STOMACH
Summary of the method: as §1

NCIH2405_LUNG = system: NCIH2405_LUNG
Summary of the method: as §1

SNU308_BILIARY_TRACT = system: SNU308_BILIARY_TRACT
Summary of the method: as §1

NCIH1666_LUNG = system: NCIH1666_LUNG
Summary of the method: as §1

[2] = system: OCILY3_HAEMATOPOIETIC_AND_LYMPHOID_TISSUE
Summary of the method: as §1

KYSE520_OESOPHAGUS = system: KYSE520_OESOPHAGUS
Summary of the method: as §1

NCIH1048_LUNG = system: NCIH1048_LUNG
Summary of the method: as §1

JHH5_LIVER = system: JHH5_LIVER
Summary of the method: as §1

MFE280_ENDOMETRIUM = system: MFE280_ENDOMETRIUM
Summary of the method: as §1

TE6_OESOPHAGUS = system: TE6_OESOPHAGUS
Summary of the method: as §1

[3] = system: KMS34_HAEMATOPOIETIC_AND_LYMPHOID_TISSUE
Summary of the method: as §1

HEP3B217_LIVER = system: HEP3B217_LIVER
Summary of the method: as §1

SNU175_LARGE_INTESTINE = system: SNU175_LARGE_INTESTINE
Summary of the method: as §1

[4] = system: KG1_HAEMATOPOIETIC_AND_LYMPHOID_TISSUE
Summary of the method: as §1

[5] = system: KPNRTBM1_AUTONOMIC_GANGLIA
Summary of the method: as §1

GI50 (SW1116_LARGE_INTESTINE): 19100 nM
GI50 (SNU308_BILIARY_TRACT): 2920 nM
GI50 (HEP3B217_LIVER): 9960 nM
GI50 (SNU175_LARGE_INTESTINE): 243 nM
Structure (SMILES): CCN(C/C=C/C#CC(C)(C)C)Cc1cccc(OCc2cc(-c3ccsc3)cs2)c1 [NB-598]
GI50 [1]: 1290 nM
GI50 (TGBC11TKB_STOMACH): 2980 nM
GI50 (NCIH2405_LUNG): 39.4 nM
GI50 (NCIH1666_LUNG): 24.9 nM
GI50 [2]: 91.1 nM
GI50 (KYSE520_OESOPHAGUS): 45500 nM
GI50 (NCIH1048_LUNG): 9060 nM
GI50 (JHH5_LIVER): 42700 nM
GI50 (MFE280_ENDOMETRIUM): 16.9 nM
GI50 (TE6_OESOPHAGUS): 9280 nM
GI50 [3]: 2070 nM
GI50 [4]: 23900 nM
GI50 [5]: 3490 nM
